Where “and” joins values, the source holds several entries; their conditions need not be identical. Equal values may be shown once.
Columns and labels:
[1] = cited from earlier work
Moser human colon = assay: in vitro cytotoxicity assay, Moser human colon; assay type: cell-based; conditions: concentration required to inhibit cell growth by 50%, four-fold serial dilution, replicate determinations on separate lines
Protocol: (§1) Representative compounds of the present invention were also evaluated in in vitro cytotoxicity assay against various murine and human tumor cell lines. The in vitro cytotoxicity assay involved growing various mammalian tumor cells, including human tumor cells, on microtitre plates employing established tissue culture methods. The concentration of each compound required to inhibit cell growth by 50% (IC50) was then determined by four-fold serial dilution technique. Tumor cells of the following types were employed for each compound tested: B16-F10 murine melanoma; Moser human colon; SW900 human lung; and two human colon tumor cell lines namely HCT-116, and HCT/VP35, the latter being resistant to etoposide (VP). […] The in vitro data may also be evaluated in terms of potency ratio which is defined as the ratio of IC50 against an etoposide-resistant cell-line to IC50 against an etoposide-sensitive cell-line.

B16-F10 murine melanoma = assay: in vitro cytotoxicity assay, B16-F10 murine melanoma; assay type: cell-based; conditions: concentration required to inhibit cell growth by 50%, four-fold serial dilution, replicate determinations on separate lines
Protocol: as §1

HCT-116 = assay: in vitro cytotoxicity assay, HCT-116 human colon tumor; assay type: cell-based; conditions: concentration required to inhibit cell growth by 50%, four-fold serial dilution, replicate determinations on separate lines
Protocol: as §1

SW900 human lung = assay: in vitro cytotoxicity assay, SW900 human lung; assay type: cell-based; conditions: concentration required to inhibit cell growth by 50%, four-fold serial dilution, replicate determinations on separate lines
Protocol: as §1

HCT/VP35 = assay: in vitro cytotoxicity assay, HCT/VP35 human colon tumor resistant to etoposide; assay type: cell-based; conditions: etoposide-resistant line, concentration required to inhibit cell growth by 50%, four-fold serial dilution, replicate determinations on separate lines
Protocol: as §1

P388 leukemia = assay: antitumor activity against intravenously implanted P388 leukemia in BDF1 female mice; assay type: in vivo, murine (BDF1 female mice); conditions: 10^6 P388 cells i.v., etoposide i.p., 125 mg/kg/dose, 64 days
Protocol: Compound of Example 15 was evaluated against intravenously implanted P388 leukemia (10^6 cells) in BDF1 female mice. The test compound was administered intravenously at various dose levels to groups of six mice on days 5 and 8; the positive control, etoposide, was given intraperitoneally. The experiment lasted 64 days.

## COc1cc([C@@H]2c3cc4c(cc3[C@@H](O[C@@H]3O[C@@H]5CO[C@@H](C)O[C@H]5[C@H](O)[C@H]3O)[C@H]3COC(=O)[C@H]23)OCO4)cc(OC)c1O [etoposide, reference compound]
[1]
  in vivo metabolism: extensively metabolized to the open ring hydroxy acid
Moser human colon
  IC50 Moser: 121.73 µg/mL and 163.19 µg/mL and 208.30 µg/mL and 209.76 µg/mL and 65.72 µg/mL and 54.09 µg/mL
Moser human colon; listed as Etoposide
  IC50 Moser: 94.51 µg/mL and 97.83 µg/mL and 116.41 µg/mL
B16-F10 murine melanoma
  IC50 B16-F10: 16.75 µg/mL and 19.47 µg/mL and 27.72 µg/mL and 30.38 µg/mL and 9.96 µg/mL and 5.80 µg/mL
B16-F10 murine melanoma; listed as Etoposide
  IC50 B16-F10: 19.36 µg/mL and 51.93 µg/mL and 62.19 µg/mL
HCT-116
  IC50 HCT-116: 14.78 µg/mL and 20.54 µg/mL and 38.03 µg/mL and 41.01 µg/mL and 3.86 µg/mL and 6.57 µg/mL
HCT-116; listed as Etoposide
  IC50 HCT-116: 15.21 µg/mL and 30.12 µg/mL and 51.27 µg/mL
SW900 human lung
  IC50 SW900: 201.94 µg/mL and 241.29 µg/mL and 243.49 µg/mL and > 500 µg/mL and 77.80 µg/mL and 54.59 µg/mL
SW900 human lung; listed as Etoposide
  IC50 SW900: 213.23 µg/mL and 241.88 µg/mL
HCT/VP35
  IC50 HCT/VP35: 122.79 µg/mL and 184.01 µg/mL and 98.33 µg/mL and 142.90 µg/mL and 79.06 µg/mL and 48.22 µg/mL
HCT/VP35; listed as Etoposide
  IC50 HCT/VP35: 16.31 µg/mL and 18.74 µg/mL and 140.63 µg/mL
P388 leukemia
  max. % T/C (positive control): > 753 % T/C
